Measurements from publication PMC3495945, “Org 214007-0: A Novel Non-Steroidal Selective Glucocorticoid Receptor Modulator with Full Anti-Inflammatory Properties and Improved Therapeutic Index” (PLoS ONE, 2012).

Experiments:
[1] = tested on: anti-CD3-induced IL-2 release; assay: anti-CD3-induced IL-2 mouse model; assay type: in vivo; conditions: oral; for ED50: Mus musculus, 1 hour before anti-CD3 i.p., Balb/c mice, read-out: ED50, reduction of anti-CD3-induced IL-2 serum levels; for efficacy, inhibition of anti-CD3-induced IL-2: relative to 10 mg/kg A420983 (100%)
Protocol: For both the LPS-induced TNFα as well as the anti-CD3 induced IL-2 model, female Balb/c mice of 8–12 week old were used. Mice were treated orally with 0.2 ml compound or vehicle (water/mannitol (5%) with 5% DMSO/5% chremophore for the LPS model or with 0.5% gelatine for the anti-CD3 model). One hour after oral treatment animals were challenged i.p. with 0.2 ml of either 20 μg/mouse LPS (Sigma, E. coli serotype 055:B5) or 5 µg/mouse hamster anti-CD3 monoclonal (BD Biosciences Pharmingen, art. nr. 553057, clone 145-2C11). Ninety minutes after LPS injection or 3 hours after anti-CD3 challenge, blood samples were collected and serum levels of TNFα or IL-2 were determined via specific ELISAs (BD Biosciences Pharmingen, San Diego, CA, USA). In the experiment that included treatment with RU486 to block GR, mice were dosed subcutaneously with 50 mg/kg RU486 30 minutes before the oral compound dosing. ED50 and % efficacy (maximal percentage inhibition of TNFα or IL-2 release) are determined using a 3 parameter sigmoidal curve calculation. Statistical analysis of the results was performed using an one-way ANOVA (log) test.

[2] = target: T1, human chimeric glucocorticoid-mineralocorticoid receptor (GGM) (Homo sapiens, UniProt P04150+P08235, G607S/G671E/L660Y/Q661R/V618L); assay: CHO steroid receptor reporter assay, MR (GGM) / MMTV-Luc; assay type: cell-based
T1 construct: glucocorticoid receptor part of the chimera (human NR3C1, P04150); expressed in transfected cells; host or cells: CHO K1
T1 sequence (P04150+P08235 with tags, fused parts or gaps P08235:G607S/P08235:V618L/P08235:L660Y/P08235:Q661R/P08235:G671E): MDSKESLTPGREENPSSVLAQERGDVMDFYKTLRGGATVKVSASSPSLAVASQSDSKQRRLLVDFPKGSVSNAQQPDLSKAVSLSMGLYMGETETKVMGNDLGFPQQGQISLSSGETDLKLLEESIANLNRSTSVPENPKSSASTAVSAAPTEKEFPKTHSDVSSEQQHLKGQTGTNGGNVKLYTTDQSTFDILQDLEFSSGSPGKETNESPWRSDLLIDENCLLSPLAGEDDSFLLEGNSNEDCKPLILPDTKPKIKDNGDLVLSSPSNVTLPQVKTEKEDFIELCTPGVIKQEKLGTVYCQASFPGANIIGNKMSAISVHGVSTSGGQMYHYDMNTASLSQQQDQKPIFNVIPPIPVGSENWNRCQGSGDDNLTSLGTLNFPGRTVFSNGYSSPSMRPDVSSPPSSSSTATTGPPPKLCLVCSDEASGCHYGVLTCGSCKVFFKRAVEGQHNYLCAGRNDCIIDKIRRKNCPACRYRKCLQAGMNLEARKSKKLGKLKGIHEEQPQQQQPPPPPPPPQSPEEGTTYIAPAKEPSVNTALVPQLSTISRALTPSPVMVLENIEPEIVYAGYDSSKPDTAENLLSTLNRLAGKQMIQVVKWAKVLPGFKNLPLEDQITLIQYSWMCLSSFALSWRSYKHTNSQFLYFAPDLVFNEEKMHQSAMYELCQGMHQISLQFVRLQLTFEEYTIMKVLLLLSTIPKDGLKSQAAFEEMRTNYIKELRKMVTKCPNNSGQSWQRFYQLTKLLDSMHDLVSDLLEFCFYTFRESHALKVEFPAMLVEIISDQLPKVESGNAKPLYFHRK
Excerpt: (§1) For monitoring both human steroid receptor agonistic as well as antagonistic activity of compounds, Chinese hamster ovary (CHO) K1 cells stably co-transfected with the specific human steroid receptor and its respective reporter construct were used (as previously described).
(§2) For human glucocorticoid receptor (GR)-specific activity CHO-GR B4.8 cells containing both recombinant human GR as well as a reporter construct consisting of the mouse mammary tumor virus (MMTV) promotor and the luciferase reporter gene, were used. Compound was incubated alone (in the agonistic setup) or with 50 nM dexamethasone (in the antagonistic setup) overnight. Hereafter, 200 µl medium was removed and 50 µl luciferine substrate solution from the LucLite luminescence kit (Packard, Meriden, USA) was added. […] Percentage maximal antagonistic efficacy was related to the maximal antagonistic efficacy of reference GR antagonist Org 34116. Similar procedures were followed for the other human steroid receptor assays (for more detailed information see Supportive Information) (SI text).
(§3) Similar procedures were followed for the other human steroid receptor assays containing combinations of human progesterone receptor B (PR-B) and MMTV-Luc, human androgen receptor (AR) and MMTV-Luc, human chimeric glucocorticoid-mineralocorticoid receptor (GGM, Trapp et al. (1994), Neuron 13: 1457) and MMTV-Luc, human estrogen receptor alpha (ERα) and rat oxytocin-Luc (45), and human estrogen receptor beta (ERβ) and rat oxytocin-Luc, respectively.

[3] = target: T2, human estrogen receptor alpha (ERα) (Homo sapiens, UniProt P03372); assay: CHO steroid receptor reporter assay, ERα / rat oxytocin-Luc; assay type: cell-based
T2 construct: expressed in transfected cells; host or cells: CHO K1
T2 sequence (P03372 1-595): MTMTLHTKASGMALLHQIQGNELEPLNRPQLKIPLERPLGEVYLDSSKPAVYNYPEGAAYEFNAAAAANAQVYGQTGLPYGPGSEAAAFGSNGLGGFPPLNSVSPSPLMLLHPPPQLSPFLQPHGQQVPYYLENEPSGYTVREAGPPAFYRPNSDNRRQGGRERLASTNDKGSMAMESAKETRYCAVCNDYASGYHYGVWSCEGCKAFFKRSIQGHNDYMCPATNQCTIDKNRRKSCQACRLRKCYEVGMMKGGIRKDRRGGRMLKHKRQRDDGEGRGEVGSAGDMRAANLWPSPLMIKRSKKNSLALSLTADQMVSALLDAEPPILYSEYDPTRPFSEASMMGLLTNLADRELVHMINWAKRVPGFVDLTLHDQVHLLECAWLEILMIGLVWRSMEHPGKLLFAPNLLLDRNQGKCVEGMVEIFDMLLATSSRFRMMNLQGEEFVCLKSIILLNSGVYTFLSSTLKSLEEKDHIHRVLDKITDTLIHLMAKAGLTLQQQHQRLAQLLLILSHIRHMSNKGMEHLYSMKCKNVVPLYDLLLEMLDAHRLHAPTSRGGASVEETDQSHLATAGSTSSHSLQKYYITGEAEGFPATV
Excerpt: as §1, §2, §3

[4] = 30 mg/kg, mouse CIA experiment; cited from earlier work

| SMILES | ED50 [1] | efficacy, inhibition of anti-CD3-induced IL-2 [1] | Emax ([2]; read-out: % efficacy (antagonist)) | EC50 ([2]; read-out: EC50 (agonist)) | IC50 ([2]; read-out: IC50 (antagonist)) | % agonist potency ([2]; relative to reference compound) | % antagonist potency ([2]; relative to reference compound) | EC50 ([3]; read-out: EC50 (agonist)) | IC50 ([3]; read-out: IC50 (antagonist)) | % agonist potency ([3]; relative to reference compound) | % antagonist potency ([3]; relative to reference compound) | serum insulin levels [4] |
| --- | --- | --- | --- | --- | --- | --- | --- | --- | --- | --- | --- | --- |
| Cc1nnsc1C(=O)N[C@H]1CCN2c3ccc(C#N)cc3[C@@H](C)c3ccccc3[C@@H]2C1 [Org 214007-0] | ~0.3 mg/kg | 75% | > 40% | > 1 µM | > 1.26 µM | <0.1% | <1.27% | > 0.1 µM | > 1 µM | <0.01% | <1.86% | – |
| C[C@]12C=CC(=O)C=C1CC[C@@H]1[C@@H]2[C@@H](O)C[C@@]2(C)[C@H]1CC[C@]2(O)C(=O)CO [prednisolone, reference compound] | ~10 mg/kg | 75% | – | – | – | – | – | – | – | – | – | significantly elevated |
